According to article PMC2138508 (The Journal of Experimental Medicine, 1968):
Ends that are not written are not given here.

Tested on: renin
Format: biochemical, hog
Conditions: for Vmax per Goldblatt unit/ml: average over the renin concentrations used; for Km relative to the tetradecapeptide (times larger): ratio of Km values

Substance	Vmax per Goldblatt unit/ml (pH 7.5, 37.5C)	also measured
Asp Arg Val Tyr Ileu His Pro Phe His Leu Leu Val Tyr Ser [asp^1-arg^2-val^3-tyr^4-ileu^5-his^6-pro^7-phe^8-his^9-leu^10-leu^11-val^12-tyr^13-ser^14]	10.2 x 10-6 M/min per Goldblatt uni	–
HPFHLLV	–	Average Km (mean of the Km values at the two renin concentrations, pH 7.5, 37.5C): eo; Substrate activity with renin (renin 0.183 Goldblatt units/ml, pH 7.5, 37.5C): no hydrolysis occurred
HPFHLLVY [his^6-pro^7-phe^8-his^9-leu^10-leu^11-val^12-tyr^13]	7.6 x 10-6 M/min per Goldblatt uni	Km relative to the tetradecapeptide (times larger): ~ 12 times
HPFHLLVYS [his^6-pro^7-phe^8-his^9-leu^10-leu^11-val^12-tyr^13-ser^14]	11.7 x 10-6 M/min per Goldblatt uni	Km relative to the tetradecapeptide (times larger): ~ 12 times
Ileu His Pro Phe His Leu Leu Val Tyr Ser	10.9 x 10-6 M/min per Goldblatt uni	–
NRVYVHPFHLLVYS [reference compound]	9.1 x 10-6 M/min per Goldblatt uni	–
PFHLLVYS	0.55 x 10-6 M/min per Goldblatt uni	Vm as printed in the Lineweaver-Burk plot of Fig. 4 (value of the figure where it differs from Table I): 0.6 x 10-6 M/min/Goldblatt unit
Tyr Ileu His Pro Phe His Leu Leu Val Tyr Ser	9.8 x 10-6 M/min per Goldblatt uni	–
Val Tyr Ileu His Pro Phe His Leu Leu Val Tyr Ser	8.9 x 10-6 M/min per Goldblatt uni	Vmax (renin concentration 0.0195 Goldblatt units/ml (so in the source), pH 7.5, 37.5C): 9.1e-07 M/min
